Results: patent publication US20170258817A1, “FOSFESTROL FOR USE IN CURATIVE OR PALLIATIVE TREATMENT OF PROSTATE CANCER” (CHAMAELEO PHARMA BVBA, priority 2012, published 2017)

Experiments:
[1] = system: DU-145 hormone-independent prostate cancer cell line; test: in vitro direct cytotoxicity, Cell titer blue viability assay; format: cell-based; details: Homo sapiens; DU-145, 72 hrs incubation
Description: (§1) Cells were maintained in vitro in RPMI 1640 containing 10% (v/v) heat inactivated fetal bovine serum (FBS) and 2 mM L-glutamine (growth media) at 37° C. in 5% CO2 and humidified conditions. Cells were harvested, washed, re-suspended into growth medium and counted. The cells were re-suspended into assay media (RPMI 1640+1% (v/v) heat inactivated FBS+ and 2 mM L-glutamine) at 0.5×10^5 cells/ml for DU-145 cells and 1×10^5 for LNCaP cells, and plated into 96-well assay plates (Corning, black-wall plates) and 50 μl/well aliquots.
(§2) Plates were incubated O/N at 37° C. in 5% humidified CO2 prior to addition of the compounds. […] Fosfestrol was dissolved in sterile water at stock concentration of 60 mM. Stocks of all compounds were then serially diluted. Final concentrations to which cells were exposed were: 300, 150, 75, 37.5, 18.75, 9.4, 4.7, 2.3, 1.2 and 0.6 μM. Positive control was Taxotere. Taxotere was diluted in 100% DSMO to give a stock concentration of 1 mM. Stock was serial diluted and final concentration to which cells were exposed was: 1000, 333.3, 111.1, 37.0, 12.3, 4.1, 1.4, 0.5, and 0.2 nM.
(§3) Plates were incubated for 72 hrs at 37° C. in 5% humidified CO-2 after addition of the compounds. Viability of the cells was assessed with the Cell titer blue® (Promega) assay. […] Fluorescence was measured with a Flex II station plate reader. […]

[2] = system: LNCaP hormone-dependent prostate cancer cell line; test: as above; format: cell-based; details: Homo sapiens, 72 hrs incubation
Description: as §1, §2, §3

[3] = system: prostate cancer cells; details: cited from earlier work
[4] = system: prostate cancer; details: 5 mg of DES p.o. per day; cited from earlier work
[5] = system: DU-145 prostate cancer cells; details: through inhibition of microtubule formation; cited from earlier work
[6] = buccal administration; cited from earlier work

| Compound | IC50 [1] [nM] | IC50 [2] [nM] | DES concentrations that do not influence prostate cancer cell growth [3] | minimal concentration of DES to induce some cytotoxic effects [3] [µg/mL] | increase of non-cancer related deaths, mostly cardiovascular [4] [%] | effect on DU-145 prostate cancer cells [5] | DES plasma level, on average [6] [ng DES/ml] | induction of thromboembolic activator (Fibrinogen) [6] |
| --- | --- | --- | --- | --- | --- | --- | --- | --- |
| CC(=O)O[C@@]12CO[C@@H]1C[C@H](O)[C@@]1(C)C(=O)[C@H](O)C3=C(C)[C@@H](OC(=O)[C@H](O)[C@@H](NC(=O)OC(C)(C)C)c4ccccc4)C[C@@](O)([C@@H](OC(=O)c4ccccc4)[C@H]21)C3(C)C [Taxotere] | 4 | 2 | – | – | – | – | – | – |
| CC/C(=C(/CC)c1ccc(O)cc1)c1ccc(O)cc1 [DES, diethylstilbestrol] | – | – | up to 100 ng/ml | 1 | 36 | cytotoxic effects | 11 | without inducing a thromboembolic activator (Fibrinogen) |
